Experimental data reported in patent publication US20230116196A1, “METHOD OF TREATING CNS DISORDERS WITH NEU[…] GABAERGIC COMPOUNDS” (priority 2017, published 2023).

Legend:
[1] = test system: GABA receptor trafficking; test: GABA receptor trafficking measured by GABAergic current density; type: cell-based
Source text: As shown in above examples, not all neurosteroids can modulate GABA receptor trafficking.

α4β3δ GABAA receptors = molecular target: T1, α4β3δ GABAA receptors (Homo sapiens, UniProt O14764+P28472+P48169); test: Whole-cell patch clamp: potentiation of GABA EC20 currents at recombinant α4β3δ GABAA receptors; type: cell-based
T1 construct: expressed in transfected cells; host or cells: CHO cells, transiently transfected (Lipofectamine)
T1 sequence (P48169 36-554): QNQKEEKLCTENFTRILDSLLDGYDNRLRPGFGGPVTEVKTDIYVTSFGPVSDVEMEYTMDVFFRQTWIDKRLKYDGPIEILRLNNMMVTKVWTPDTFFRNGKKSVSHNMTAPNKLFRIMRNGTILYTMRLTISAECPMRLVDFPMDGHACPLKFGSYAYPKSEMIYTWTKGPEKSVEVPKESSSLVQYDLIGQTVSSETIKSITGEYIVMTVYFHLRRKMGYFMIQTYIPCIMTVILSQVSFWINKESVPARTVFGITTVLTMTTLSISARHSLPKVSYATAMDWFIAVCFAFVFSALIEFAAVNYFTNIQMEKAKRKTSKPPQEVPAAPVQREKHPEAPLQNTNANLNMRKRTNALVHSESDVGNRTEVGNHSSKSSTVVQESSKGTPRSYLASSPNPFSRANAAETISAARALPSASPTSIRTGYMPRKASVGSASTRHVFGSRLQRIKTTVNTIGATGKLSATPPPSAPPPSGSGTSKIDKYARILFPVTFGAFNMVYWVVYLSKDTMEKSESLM
T1 sequence (P28472 26-473): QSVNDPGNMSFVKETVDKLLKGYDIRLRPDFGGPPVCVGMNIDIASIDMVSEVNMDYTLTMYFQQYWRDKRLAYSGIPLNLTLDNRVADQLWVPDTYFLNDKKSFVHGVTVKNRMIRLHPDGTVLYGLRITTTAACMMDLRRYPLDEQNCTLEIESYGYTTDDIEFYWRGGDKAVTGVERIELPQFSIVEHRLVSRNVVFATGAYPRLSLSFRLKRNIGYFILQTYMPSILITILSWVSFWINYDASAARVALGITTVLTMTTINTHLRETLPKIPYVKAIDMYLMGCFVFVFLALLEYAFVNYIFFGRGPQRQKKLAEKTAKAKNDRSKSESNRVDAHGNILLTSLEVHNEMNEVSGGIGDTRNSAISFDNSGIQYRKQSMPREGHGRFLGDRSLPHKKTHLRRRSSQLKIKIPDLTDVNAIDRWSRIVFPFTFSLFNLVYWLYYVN
T1 sequence (O14764 25-452): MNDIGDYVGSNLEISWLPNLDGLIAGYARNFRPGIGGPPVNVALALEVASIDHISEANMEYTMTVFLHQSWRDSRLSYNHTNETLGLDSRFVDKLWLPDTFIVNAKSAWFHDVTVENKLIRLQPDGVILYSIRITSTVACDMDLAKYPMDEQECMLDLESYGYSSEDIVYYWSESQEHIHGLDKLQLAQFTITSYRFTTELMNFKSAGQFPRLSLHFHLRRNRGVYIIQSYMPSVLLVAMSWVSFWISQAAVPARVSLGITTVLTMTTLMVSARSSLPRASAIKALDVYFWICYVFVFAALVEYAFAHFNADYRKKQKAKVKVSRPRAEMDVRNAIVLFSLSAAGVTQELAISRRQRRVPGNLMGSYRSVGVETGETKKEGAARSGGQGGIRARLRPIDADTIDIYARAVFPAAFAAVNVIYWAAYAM
Description: Cellular electrophysiology was used to measure the pharmacological properties of ALLO, ganaxolone and SGE-516 in heterologous cell systems. Compounds were tested for their ability to affect GABA mediated currents at a submaximal agonist dose (GABA EC20=2 μM).
LTK cells were stably transfected with the α1β2γ2 subunits of the GABA receptor and CHO cells are transiently transfected with the α4β3γ subunits via the Lipofecatamine method. Cells were passaged at a confluence of about 50-80% and then seeded onto 35 mm sterile culture dishes containing 2 ml culture complete medium without antibiotics or antimycotics. Cells were cultivated at a density that enabled the recording of single cells without visible connections to other cells.
Whole-cell currents were measured with HEKA EPC-10 amplifiers using PatchMaster software. Bath solution for all experiments contained (in mM): NaCl 137, KCl 4, CaCl2 1.8, MgCl2 1, HEPES 10, D-Glucose 10, pH 7.4 with NaOH. Intracellular (pipette) solution contained (in mM): KCl 130, MgCl2 1, Mg-ATP 5, HEPES 10, EGTA 5, pH 7.2 with KOH. During experiments, cells and solutions were maintained at room temperature (19° C.-30° C.). For manual patchclamp recordings, cell culture dishes were placed on the dish holder of the microscope and continuously perfused (1 ml/min) with bath solution. After formation of a Gigaohm seal between the patch electrode and the cell (pipette resistance range: 2.5 MΩ-6.0MΩ; seal resistance range: >1 GΩ) the cell membrane across the pipette tip was ruptured to assure electrical access to the cell interior (whole-cell patch configuration).
Cells were voltage-clamped at a holding potential of −80 mV. GABAA receptors were activated by 2 μM GABA and compounds were sequentially applied at increasing concentrations for 30 s prior to a 2 s application of GABA. GABA and compounds were applied to cells via the Dynaflow perfusion system (Cellectricon, Sweden). Test compounds were dissolved in DMSO to form 10 mM stock solution and serially diluted to 0.01, 0.1, 1, and 10 μM in bath solution. There was no effect on GABA currents when DMSO was applied to cells at its maximal concentration in solution (0.1%). All concentrations of test compound were tested on each cell. The relative percentage potentiation was defined as the peak amplitude in response to GABA EC20 in the presence of test compound divided by the peak amplitude in response to GABA EC20 alone, multiplied by 100.
ALLO and ganaxolone are known PAMs of both synaptic and extrasynaptic GABAAR-mediated currents. The ability of candidate compound SGE-516 to act as a PAM was compared to ALLO and ganaxolone using the whole-cell recordings of recombinant human GABAA receptors expressed in mammalian cells. The α1β2γ2 or α4β3δ subunit combinations were chosen as representatives of typical synaptic and extrasynaptic GABAA receptors respectively. Similar to previous reports (Botella et al., 2015), ALLO, ganaxolone and SGE-516 allosterically potentiated currents induced by EC20 concentration of GABA in a concentration-dependent manner in both synaptic- and extrasynaptic-type GABAARs.

[2] = test system: dentate gyrus granule cells (DGGCs); test: Acute NAS exposure: tonic current in DGGCs of hippocampal slices; type: cell-based, mouse; details: 100 nM, 10 min acute exposure; mean±SEM
Description: Brain slices were prepared from 3- to 5-week-old male C57 mice. Mice were anesthetized with isoflurane, decapitated, and brains were rapidly removed and submerged in ice-cold cutting solution containing (mM): 126 NaCl, 2.5 KCl, 0.5 CaCl2, 2 MgCl2, 26 NaHCO3, 1.25 NaH2PO4, 10 glucose, 1.5 sodium pyruvate, and 3 kynurenic acid. Coronal 310 μm thick slices were cut with the vibratome VT1000S (Leica Microsystems, St Louis, Mo., USA). The slices were then transferred into incubation chamber filled with prewarmed (31-32° C.) oxygenated artificial cerebro-spinal fluid (ACSF) of the following composition (in mM): 126 NaCl, 2.5 KCl, 2 CaCl2, 2 MgCl2, 26 NaHCO3, 1.25 NaH2PO4, 10 glucose, 1.5 sodium pyruvate, 1 glutamine, 3 kynurenic acid and 0.005 GABA bubbled with 95% O2-5% CO2. Slices were allowed to recover at 32° C. for at least 1 hr before recording. Exogenous GABA was added in an attempt to standardize ambient GABA in the slice and provide an agonist source for newly inserted extrasynaptic GABAARs. […]
Whole-cell currents were recorded from the dentate gyrus granule cells (DGGCs) in 310-μm-thick coronal hippocampal slices. […] A 5 min period for stabilization after obtaining the whole-cell recording conformation (holding potential of −60 mV) was allowed before currents were recorded using an Axopatch 200B amplifier (Molecular Devices), low-pass filtered at 2 kHz, digitized at 20 kHz (Digidata 1440A; Molecular Devices), and stored for offline analysis.
For tonic current measurements, an all-points histogram was plotted for a 10 s period before and during 100 μM picrotoxin application, once the response reached a plateau level. […] Series resistance and whole-cell capacitance were continually monitored and compensated throughout the course of the experiment. […] Spontaneous inhibitory post-synaptic currents (sIPSCs) were analyzed using the mini-analysis software (version 5.6.4; Synaptosoft, Decatur, Ga.). […] Only recordings with a minimum of 200 events fitting these criteria were analyzed. sIPSCs amplitude, and frequency from each experimental condition was pooled and expressed as mean±SEM. […]

[3] = potentiation of current at GABA EC20 (2 μM), n = 3

Structure (SMILES) | modulation of GABA receptor trafficking [1] | pEC50 ± S.E.M., α4β3δ (α4β3δ GABAA receptors; [3]) | tonic current during acute exposure [2] [pA] | EC50 (α4β3δ GABAA receptors; [3]) [nM] | Emax ± S.E.M., α4β3δ (α4β3δ GABAA receptors; relative percentage potentiation of GABA EC20 current) [%]
CC(=O)[C@H]1CC[C@H]2[C@@H]3CC[C@H]4C[C@H](O)CC[C@]4(C)[C@H]3CC[C@]12C [ALLO, Allopregnanolone] | modulated | 7.2 ± 0.3 | 58.3±13.0 |  | 
CC(=O)[C@H]1CC[C@H]2[C@@H]3CC[C@H]4C[C@](C)(O)CC[C@]4(C)[C@H]3CC[C@]12C [Ganaxolone] | did not modulate | 7.0 ± 0.1 | 78.8±23.2 |  | 
C[C@@]1(O)CC[C@@]2(C)[C@H](CC[C@@H]3[C@@H]2CC[C@]2(C)[C@@H](C(=O)Cn4nccn4)CC[C@@H]32)C1 [SGE-516] | modulated |  | 49.2±8.9 | 193 | 505 ± 19
